This is an account of results in patent US11084824B2, “Pyrazolopyrimidine derivatives, preparation method thereof, and pharmaceutical composition for use in preventing or treating cancer, autoimmune disease and brain disease containing the same as an active ingredient” (Korea Research Institute of Chemical Technology, priority 2017, dated 2021).

pIC50: −log10 of the molar value.

The subject of assay [1] is human peripheral blood mononuclear cells (human PBMC). Kind of assay: TNFa inhibition in human PBMC monocytes (ELISA). The following applies: TNFa concentration in culture medium by ELISA, HSA/anti-HSA antibody coated plate, overnight culture, read-out: hPBMC IC50. In kind it is cell-based. The method, then:
20 ug/ml of human serum albumin (HAS) solution was prepared and distributed in a 96-well plate (200 μl/well). Reaction was induced at 4° C. for overnight and then 10% FBS solution was treated thereto (200 μl/well), followed by elimination. Lastly, 10 ug/ml of anti-HSA antibody was treated thereto (200 μl/well) for 1 hour, followed by elimination. An appropriate number of monocytes of human peripheral blood mononuclear cells (human PBMC) were distributed in the prepared 96-well plate. The target compounds were treated thereto at different concentration via serial dilution method, followed by culture for overnight. IC50 values of the compounds were determined by confirming the TNFa inhibition activity of the compounds between the maximum concentration (positive control) and the minimum concentration (negative control) of TNFa, and the results are shown in Table 8.
On the technique in general: ELISA stands for enzyme-linked immunosorbent assay.

Assay [2] addresses Bruton's tyrosine kinase (BTK) (Homo sapiens (Human), UniProt Q06187). Kind of assay: BTK enzyme inhibition assay (Cisbio HTRF kit). Type of assay: biochemical. The following applies: 30 minutes reaction, fluorescence 665 nm/620 nm. The method, then:
BTK enzyme evaluation with each compound of examples of the invention was performed by using BTK enzyme inhibition diagnosis kit (Cisbio, Codolet, France). […] Then, EDTA (ethylenediaminetetraacetic acid) was added thereto in order to terminate the reaction. At this time, the EDTA solution contained curopium-containing antibody (antiphosphoresidue antibody) and straptavidin-XL665 (SA-XL665, Cisbio). After incubation for 1 hour, fluorescence was measured. The emission values of 665 nm and 620 nm excited at 337 nm were measured with Envision reader. IC50 values were determined using GraphPad prism (version 5). Herein, the curve indicates a nonlinear regression model, which was determined by logarithmic functions and reaction values.
In general terms: Time-resolved FRET reads energy transfer from a long-lived donor to a nearby acceptor.

The subject of assay [3] is TMD8 cells. Description: TMD8 cell growth inhibition (WST-1, 72 hours). In kind it is cell-based. The following applies: Homo sapiens, TMD8 ABC type DLBCL cell line, WST-1, absorbance 450 nm. The method, then: TDM-8 cells, the ABC (activated B-cell) type DLBCL (diffuse large B cell lymphoma) cell line sensitive to BTK signaling, were seeded in a 96-well plate at 30% confluency. Then, the compounds of the invention were treated thereto at different concentrations. 72 hours later, WST-1 reagent was added thereto. One hour later, absorbance was measured at 450 nm by using a spectramax spectrophotometer.

Chain of Bruton's tyrosine kinase (BTK) (Q06187 whole entry): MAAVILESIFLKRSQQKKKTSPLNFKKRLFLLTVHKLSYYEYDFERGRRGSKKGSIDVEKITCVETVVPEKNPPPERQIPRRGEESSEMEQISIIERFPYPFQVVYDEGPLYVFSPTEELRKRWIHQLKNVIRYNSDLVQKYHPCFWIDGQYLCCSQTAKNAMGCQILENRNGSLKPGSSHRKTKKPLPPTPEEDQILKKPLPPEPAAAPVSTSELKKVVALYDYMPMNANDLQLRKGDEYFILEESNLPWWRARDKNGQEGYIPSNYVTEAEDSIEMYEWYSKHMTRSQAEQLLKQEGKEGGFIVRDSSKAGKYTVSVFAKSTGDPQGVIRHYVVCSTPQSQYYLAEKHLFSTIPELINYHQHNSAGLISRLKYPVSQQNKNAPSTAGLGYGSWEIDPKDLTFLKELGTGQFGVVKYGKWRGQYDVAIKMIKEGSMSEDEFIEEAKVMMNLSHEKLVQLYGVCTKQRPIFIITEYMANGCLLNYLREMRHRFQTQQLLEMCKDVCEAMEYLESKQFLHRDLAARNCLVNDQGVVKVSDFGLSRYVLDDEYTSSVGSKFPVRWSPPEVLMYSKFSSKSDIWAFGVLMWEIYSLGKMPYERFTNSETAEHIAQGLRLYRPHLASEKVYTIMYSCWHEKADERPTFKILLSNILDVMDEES

The pIC50 is the negative decadic logarithm of the IC50, by convention in mol/L. For `Cc1cccc(C)c1Nc1nn(C)c2nc(Nc3ccc4c(c3)CCNC4)ncc12` [Example 7, N^3-(2,6-dimethylphenyl)-1-methyl-N^6-(1,2,3,4-tetrahydroisoquinoline-6-yl)-1H-pyrazolo[3,4-d]pyrimidine-3,6-diamine], the pIC50 in assay [1] is 7.70; in assay [2] it was 9.10; in assay [3] it was 7.34.
The like results for `CC(=O)N1CCc2ccc(Nc3ncc4c(Nc5c(Cl)cccc5Cl)nn(C)c4n3)cc2C1` [Example 13, 1-(7-(3-(2,6-dichlorophenylamino)-1-methyl-1H-pyrazolo[3,4-d]pyrimidine-6-ylamino)-3,4-dihydroisoquinoline-2(1H)-yl)ethaneone] were, in that order, 8.26, 8.52 and 6.93.
For `COc1cc2c(cc1Nc1ncc3c(Nc4c(C)cccc4C)nn(C)c3n1)CCNC2` [Example 4, N^1-(2,6-dimethylphenyl)-N^6-(7-methoxy-1,2,3,4-tetrahydroisoquinoline-6-yl)-1-methyl-1H-pyrazolo[3,4-d]pyrimidine-3,6-diamine], the pIC50 in assay [1] is 6.68; in assay [2], 7.00; in assay [3], 6.24.
For the compound `Cn1nc(Nc2c(Cl)cccc2Cl)c2cnc(Nc3ccc4c(c3)CCNC4)nc21` [Example 15, N^3-(2,6-dichlorophenyl)-1-methyl-N^6-(1,2,3,4-tetrahydroisoquinoline-6-yl)-1H-pyrazolo[3,4-d]pyrimidine-3,6-diamine], the figures for the pIC50 in assay [1] and in assay [3] were 8.89 and 7.39, respectively.
Consider `Cn1nc(Nc2c(Cl)cccc2Cl)c2cnc(Nc3ccc4c(c3)CNCC4)nc21` [Example 12, N^3-(2,6-dichlorophenyl)-1-methyl-N^6 (1,2,3,4-tetrahydroisoquinoline-7-yl)-1H-pyrazolo[3,4-d]pyrimidine-3,6-diamine], for which the results for the pIC50 in assay [1], in assay [2] and in assay [3] were 8.59, 8.43 and 7.05, respectively.
In the case of `C=CC(=O)N1CCc2ccc(Nc3ncc4c(Nc5c(C)cccc5C)nn(C)c4n3)cc2C1` [Example 14, 1-(7-(3-(2,6-dimethylphenylamino)-1-methyl-1H-pyrazolo[3,4-d]pyrimidine-6-ylamino)-3,4-dihydroisoquinoline-2(1H)-yl)prop-2-en-1-one], the pIC50 in assay [1] is 7.51; in assay [2], 8.70; in assay [3] it was 7.49.
The like results for `CC(=O)N1CCc2cc(Nc3ncc4c(Nc5c(C)cccc5C)nn(C)c4n3)ccc2C1` [Example 8, 1-(6-(3-(2,6-dimethylphenylamino)-1-methyl-1H-pyrazolo[3,4-d]pyrimidine-6-ylamino)-3,4-dihydroisoquinoline-2(1H)-yl)ethaneone] were, in that order, 8.32, 9.00 and 7.03.
As to `Cc1cccc(C)c1Nc1nn(C)c2nc(Nc3ccc4c(c3)CCN(C(=O)C(F)(F)F)C4)ncc12` [Example 6, 1-(6-(3-(2,6-dimethylphenylamino)-1-methyl-1H-pyrazolo[3,4-d]pyrimidine-6-ylamino)-3,4-dihydroisoquinoline-2(1H)-yl)-2,2,2-trifluoroethaneone], the pIC50 in assay [1] is 6.95; in assay [2], 8.00; in assay [3], 6.80.
On to `Cn1nc(Nc2ccccc2)c2cnc(Nc3ccc4c(c3)CNCC4)nc21` [Example 10, 1-methyl-N^3-phenyl-N^6-(1,2,3,4-tetrahydroisoquinoline-7-yl)-1H-pyrazolo[3,4-d]pyrimidine-3,6-diamine], for which the pIC50 in assay [1] was 6.69.
Take `CC(=O)N1CCc2ccc(Nc3ncc4c(Nc5c(C)cccc5C)nn(C)c4n3)cc2C1` [Example 1, 1-(7-(3-(2,6-dimethylphenylamino)-1-methyl-1H-pyrazolo[3,4-d]pyrimidine-6-ylamino)-3,4-dihydroisoquinoline-2(1H)-yl)ethaneone]: the pIC50 was 7.46 in assay [1], 9.22 in assay [2] and 7.39 in assay [3].
With `Cc1cccc(Cl)c1Nc1nn(C)c2nc(Nc3ccc4c(c3)CNCC4)ncc12` [Example 48, N^3-(2-chloro-6-methylphenyl)-1-methyl-N^6 (1,2,3,4-tetrahydroisoquinoline-7-yl)-1H-pyrazolo[3,4-d]pyrimidine-3,6-diamine], the pIC50 was 8.89 in assay [2] and 7.30 in assay [3].
The like results for `Cc1cccc(C)c1Nc1nn(C2CCC(O)CC2)c2nc(Nc3ccc4c(c3)CNCC4)ncc12` (stereo not drawn) [Example 54, 4-(3-((2,6-dimethylphenyl)amino)-6-((1,2,3,4-tetrahydroisoquinoline-7-yl)amino)-1H-pyrazolo[3,4-d]pyrimidine-1-yl)cyclohexane-1-ol] were, in that order, 8.94 and 7.22.
With `CC(=O)N1CCc2cc(Nc3ncc4c(Nc5c(Cl)cccc5Cl)nn(C)c4n3)ccc2C1` [Example 16, 1-(6-(3-(2,6-dichlorophenylamino)-1-methyl-1H-pyrazolo[3,4-d]pyrimidine-6-ylamino)-3,4-dihydroisoquinoline-2(1H)-yl)ethaneone], the figures for the negative-log IC50 (pIC50) in assay [1], in assay [2] and in assay [3] were 8.49, 8.52 and 7.21, respectively.
Regarding `Cc1cccc(C)c1Nc1nn(C)c2nc(Nc3ccc4c(c3)CN(CCO)CC4)ncc12` [Example 24, 2-(7-((3-((2,6-dimethylphenyl)amino)-1-methyl-1H-pyrazolo[3,4-d]pyrimidine-6-yl)amino)-3,4-dihydroisoquinoline-2(1H)-yl)ethane-1-ol], the values for the pIC50 in assay [2] and in assay [3] were 9.52 and 7.40, respectively.
Regarding `Cc1cccc(C)c1Nc1nn(C)c2nc(Nc3ccc4c(c3)CNCC4)ncc12` [Example 2, N^3-(2,6-dimethylphenyl)-1-methyl-N^6-(1,2,3,4-tetrahydroisoquinoline-7-yl)-1H-pyrazolo[3,4-d]pyrimidine-3,6-diamine], the figures for the pIC50 in assay [1] and in assay [3] were 8.11 and 7.52, respectively.
For `CC(=O)N1CCc2ccc(Nc3ncc4c(Nc5c(C)cccc5C)nn(C)c4n3)cc2C1C` (stereo not drawn) [Example 61, 1-(7-((3-((2,6-dimethylphenyl)amino)-1-methyl-1H-pyrazolo[3,4-d]pyrimidine-6-yl)amino)-1-methyl-3,4-dihydroisoquinoline-2(1H)-yl)ethane-1-one], the pIC50 in assay [2] is 8.99; in assay [3], 7.02.
The like results for `Cc1cccc(C)c1Nc1nn(C)c2nc(Nc3ccc4c(c3)CNC(C)(C)C4)ncc12` [Example 53, N^6-(3,3-dimethyl-1,2,3,4-tetrahydroisoquinoline-7-yl)-N^3-(2,6-dimethylphenyl)-1-methyl-1H-pyrazolo[3,4-d]pyrimidine-3,6-diamine] were, in that order, 9.28 and 7.50.
